Experimental data taken from US20240083900A1, “PYRAZOLO[1,5-A]PYRAZINE DERIVATIVES AS BTK INHIBITORS” (BIOGEN MA INC., priority 2020, published 2024).
Like-named read-outs stand apart in the source and are kept apart here.

Legend:
[1] = target: BTK (Homo sapiens (Human), UniProt Q06187); experiment: In Vitro BTK Kinase Assay: Btk-PolyGAT-LS Assay; format: biochemical; details: BTK enzyme 0.25 nM, ATP 10 μM, polyGAT 100 nM, 30 minutes incubation, TRF readout; read-out: IC50
Summary of the method: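 Human BTK activity was measured with final 10 μM ATP and 100 nM polyGAT substrate in pH 7.5 Tris buffer with 10 mM MgCl2, DTT, Triton X-100 and casein.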

[2] = system: CD69 expression on CD19+ B cells in human whole blood stimulated with anti-human IgD; experiment: In Vitro whole blood CD69 Assay; format: cell-based
[3] = Homo sapiens, B-cell, human heparinized whole blood, anti-human IgD stimulation overnight, percentage of CD19+ B cells expressing CD69, flow cytometry, read-out: IC50
[4] = human heparinized whole blood, anti-human IgD stimulation overnight, percentage of CD19+ B cells expressing CD69, flow cytometry, read-out: IC50

BTK, sequence (Q06187 whole entry): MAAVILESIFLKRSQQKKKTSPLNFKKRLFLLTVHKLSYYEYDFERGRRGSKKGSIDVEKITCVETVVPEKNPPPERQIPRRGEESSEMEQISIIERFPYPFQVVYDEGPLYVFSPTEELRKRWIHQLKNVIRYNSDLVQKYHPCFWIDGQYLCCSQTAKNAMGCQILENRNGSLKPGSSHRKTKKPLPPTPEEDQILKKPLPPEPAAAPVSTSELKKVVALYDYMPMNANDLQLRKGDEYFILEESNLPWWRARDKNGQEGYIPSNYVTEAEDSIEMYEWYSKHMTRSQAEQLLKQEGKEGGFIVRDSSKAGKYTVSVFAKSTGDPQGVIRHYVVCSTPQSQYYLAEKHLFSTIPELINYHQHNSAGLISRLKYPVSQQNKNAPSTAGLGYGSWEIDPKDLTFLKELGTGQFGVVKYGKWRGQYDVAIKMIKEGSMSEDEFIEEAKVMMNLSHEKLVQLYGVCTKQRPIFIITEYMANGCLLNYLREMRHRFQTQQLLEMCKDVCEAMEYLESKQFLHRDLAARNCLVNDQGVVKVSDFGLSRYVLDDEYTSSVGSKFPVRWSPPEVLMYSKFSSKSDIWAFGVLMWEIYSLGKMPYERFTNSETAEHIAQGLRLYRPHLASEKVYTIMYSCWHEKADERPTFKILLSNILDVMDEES

Structure (SMILES)	IC50 [1]	IC50 [2, 3]	IC50 [2, 4]	IC50 ([2]; Homo sapiens, B-cell)
C=CC(=O)N1CCC[C@@H](Oc2nc(-c3cnn(C)c3)cn3ncc(C(F)(F)F)c23)CC1 [Example 62, 1-[(4R)-4-[6-(1-methylpyrazol-4-yl)-3-(trifluoromethyl)pyrazolo[1,5-a]pyrazin-4-yl]oxyazepan-1-yl]prop-2-en-1-one]	1 to 10 nM	1000 to 10000 nM		
C=CC(=O)N(C)[C@H]1C[C@@H](Oc2nc(-c3cnn(C)c3)cn3ncc(F)c23)C1 [Example 63, N-((cis)-3-((3-fluoro-6-(1-methyl-1H-pyrazol-4-yl)pyrazolo[1,5-a]pyrazin-4-yl)oxy)cyclobutyl)-N-methylacrylamide]	< 1 nM	> 10000 nM		
C=CC(=O)N(C)[C@H]1C[C@H](Oc2nc(-c3cnn(C)c3)cn3ncc(C(F)F)c23)C1 [Example 64, N-((trans)-3-((3-(difluoromethyl)-6-(1-methyl-1H-pyrazol-4-yl)pyrazolo[1,5-a]pyrazin-4-yl)oxy)cyclobutyl)-N-methylacrylamide]	1 to 10 nM	< 1000 nM		
C=CC(=O)N1CCC[C@@H](Oc2cc(-c3cnn(C)c3)cn3nccc23)CC1 [Example 66, 1-[(4R)-4-[6-(1-methylpyrazol-4-yl)pyrazolo[1,5-a]pyridin-4-yl]oxyazepan-1-yl]prop-2-en-1-one]	< 1 nM	< 1000 nM		
C=CC(=O)N1CCC[C@@H](Oc2nc(-c3cnn(C)c3)cn3nc(N)cc23)CC1 [Example 67, 1-[(4R)-4-[2-amino-6-(1-methylpyrazol-4-yl)pyrazolo[1,5-a]pyrazin-4-yl]oxyazepan-1-yl]prop-2-en-1-one]	< 1 nM	< 1000 nM		
C=CC(=O)N1CCC[C@@H](Oc2nc(-c3cn(C)nc3C)cn3ncnc23)CC1 [Example 70, 1-[(4R)-4-[[6-(1,3-dimethylpyrazol-4-yl)-[1,2,4]triazolo[1,5-a]pyrazin-8-yl]oxy]azepan-1-yl]prop-2-en-1-one]	1 to 10 nM	1000 to 10000 nM		
C=CC(=O)N1CCOCC1CCOc1cc(-c2cnn(C)c2)cn2nccc12 (centres unmarked) [Example 81, 1-(3-(2-((6-(1-methyl-1H-pyrazol-4-yl)pyrazolo[1,5-a]pyridin-4-yl)oxy)ethyl)morpholino)prop-2-en-1-one]	1 to 10 nM	1000 to 10000 nM		
CC#CC(=O)N1CC2(C1)CC(C)(Oc1nc(-c3cnn(C)c3)cn3ncc(F)c13)C2 [Example 86, 1-(6-((3-fluoro-6-(1-methyl-1H-pyrazol-4-yl)pyrazolo[1,5-a]pyrazin-4-yl)oxy)-6-methyl-2-azaspiro[3.3]heptan-2-yl)but-2-yn-1-one]	1 to 10 nM	< 1000 nM		
CC#CC(=O)N(C)[C@H]1CCC[C@@H](Oc2nc(-c3cnn(C)c3)cn3ncc(F)c23)C1 [Example 92, N-((1S,3R)-3-((3-fluoro-6-(1-methyl-H-pyrazol-4-yl)pyrazolo[1,5-a]pyrazin-4-yl)oxy)cyclohexyl)-N-methylbut-2-ynamide]	< 1 nM	1000 to 10000 nM		
CN(C)C/C=C/C(=O)N(C)[C@H]1CCC[C@@H](Oc2nc(-c3cnn(C)c3)cn3ncc(F)c23)C1 [Example 93, (E)-4-(dimethylamino)-N-((1S,3R)-3-((3-fluoro-6-(1-methyl-1H-pyrazol-4-yl)pyrazolo[1,5-a]pyrazin-4-yl)oxy)cyclohexyl)-N-methylbut-2-enamide]	1 to 10 nM	< 1000 nM		
CC#CC(=O)N[C@H]1CC[C@@H](Oc2nc(-c3cnn(C)c3)cn3ncc(F)c23)C1 [Example 95, N-((1S,3R)-3-((3-fluoro-6-(1-methyl-1H-pyrazol-4-yl)pyrazolo[1,5-a]pyrazin-4-yl)oxy)cyclopentyl) but-2-ynamide]	< 1 nM	< 1000 nM		
C=CC(=O)NC12CCC(Oc3nc(-c4cnn(C)c4)cn4nccc34)(C1)C2 [Example 98, N-(4-((6-(1-methyl-1H-pyrazol-4-yl)pyrazolo[1,5-a]pyrazin-4-yl)oxy)bicyclo[2.1.1]hexan-1-yl)acrylamide]	< 1 nM	1000 to 10000 nM		
CC#CC(=O)N(C)C12COCC(Oc3nc(-c4cnn(C)c4)cn4nccc34)(C1)C2 [Example 100, N-methyl-N-(5-((6-(1-methyl-1H-pyrazol-4-yl)pyrazolo[1,5-a]pyrazin-4-yl)oxy)-3-oxabicyclo[3.1.1]heptan-1-yl)but-2-ynamide]	< 1 nM	< 1000 nM		
C=CC(=O)N(C1CC1)[C@H]1C[C@@H](Oc2nc(-c3cnn(C)c3)cn3nccc23)C1 [Example 101, N-cyclopropyl-N-((cis)-3-((6-(1-methyl-1H-pyrazol-4-yl)pyrazolo[1,5-a]pyrazin-4-yl)oxy)cyclobutyl)acrylamide]	< 1 nM	1000 to 10000 nM		
C=CC(=O)N(C)[C@H]1C[C@](Oc2nc(-c3cnn(C)c3)cn3nccc23)(C2CC2)C1 [Example 103, N-((1s,3s)-3-cyclopropyl-3-((6-(1-methyl-1H-pyrazol-4-yl)pyrazolo[1,5-a]pyrazin-4-yl)oxy)cyclobutyl)-N-methylacrylamide]	1 to 10 nM		1000 to 10000 nM	
C=CC(=O)N(C)[C@H]1C[C@@](Oc2nc(-c3cnn(C)c3)cn3nccc23)(C2CC2)C1 [Example 104, N—((1r,3r)-3-cyclopropyl-3-((6-(1-methyl-1H-pyrazol-4-yl)pyrazolo[1,5-a]pyrazin-4-yl)oxy)cyclobutyl)-N-methylacrylamide]	10 to 1000 nM		1000 to 10000 nM	
C=CC(=O)N1CC2(Oc3nc(-c4cnn(C)c4)cn4nccc34)CC1(C)C2 [Example 124, 1-(1-methyl-4-((6-(1-methyl-1H-pyrazol-4-yl)pyrazolo[1,5-a]pyrazin-4-yl)oxy)-2-azabicyclo[2.1.1]hexan-2-yl)prop-2-en-1-one]	1 to 10 nM			1000 to 10000 nM
C=CC(=O)NC12CCC(Oc3nc(-c4cnn(C)c4)cn4nccc34)(CC1)C2 [Example 125, N-(4-((6-(1-methyl-1H-pyrazol-4-yl)pyrazolo[1,5-a]pyrazin-4-yl)oxy)bicyclo[2.2.1]heptan-1-yl)acrylamide]	1 to 10 nM	1000 to 10000 nM		
C=CC(=O)N1CC2CC(C1)C2COc1nc(-c2cnn(C)c2)cn2nccc12 (centres unmarked) [Example 126, 1-(6-(((6-(1-methyl-1H-pyrazol-4-yl)pyrazolo[1,5-a]pyrazin-4-yl)oxy)methyl)-3-azabicyclo[3.1.1]heptan-3-yl)prop-2-en-1-one]	< 1 nM	< 1000 nM		
C=CC(=O)N1C[C@H]2C[C@@H](C1)[C@@H]2COc1nc(-c2cnn(C)c2)cn2nccc12 [Example 127, 1-((1R,5S,6r)-6-(((6-(1-methyl-1H-pyrazol-4-yl)pyrazolo[1,5-a]pyrazin-4-yl)oxy)methyl)-3-azabicyclo[3.1.1]heptan-3-yl)prop-2-en-1-one]	< 1 nM		1000 to 10000 nM	
C=CC(=O)N1C[C@H]2C[C@@H](C1)[C@H]2COc1nc(-c2cnn(C)c2)cn2nccc12 [Example 128, 1-((1R,5S,6s)-6-(((6-(1-methyl-1H-pyrazol-4-yl)pyrazolo[1,5-a]pyrazin-4-yl)oxy)methyl)-3-azabicyclo[3.1.1]heptan-3-yl)prop-2-en-1-one]	< 1 nM		< 1000 nM	
C=CC(=O)N(C)c1ccc(F)c(Oc2nc(-c3cnn(C)c3)cn3nccc23)c1 [Example 130, N-(4-fluoro-3-((6-(1-methyl-1H-pyrazol-4-yl)pyrazolo[1,5-a]pyrazin-4-yl)oxy)phenyl)-N-methylacrylamide]	1 to 10 nM	1000 to 10000 nM		
C=CC(=O)N(CC(F)F)[C@H]1CC[C@@H](Oc2nc(-c3cnn(C)c3)cn3nccc23)C1 [Example 146, N-(2,2-difluoroethyl)-N-((1S,3R)-3-((6-(1-methyl-1H-pyrazol-4-yl)pyrazolo[1,5-a]pyrazin-4-yl)oxy)cyclopentyl)acrylamide]	< 1 nM	< 1000 nM		
CC#CC(=O)N[C@H]1CC[C@@H](Oc2cc(-c3cnn(C)c3)cn3nccc23)C1 [Example 164, N-[(1S,3R)-3-[6-(1-methylpyrazol-4-yl)pyrazolo[1,5-a]pyridin-4-yl]oxycyclopentyl]but-2-ynamide]	1 to 10 nM	1000 to 10000 nM		
C=CC(=O)N[C@H]1C[C@@](C)(Oc2nc(-c3cnn(C)c3)cn3ncc(C4CC4)c23)C1 [Example 166, N-((cis)-3-((3-cyclopropyl-6-(1-methyl-1H-pyrazol-4-yl)pyrazolo[1,5-a]pyrazin-4-yl)oxy)-3-methylcyclobutyl)acrylamide]	< 1 nM	< 1000 nM		
C=CC(=O)N1CC[C@@H]2[C@@H](Oc3nc(-c4cnn(C)c4)cn4nccc34)C(C)(C)[C@@H]21 [Example 169, 1-((1R,5S,6R)-7,7-dimethyl-6-((6-(1-methyl-1H-pyrazol-4-yl)pyrazolo[1,5-a]pyrazin-4-yl)oxy)-2-azabicyclo[3.2.0]heptan-2-yl)prop-2-en-1-one]	1 to 10 nM	1000 to 10000 nM		
C=CC(=O)N1CC[C@@H]2[C@H]1C(C)(C)[C@H]2Oc1nc(-c2cnn(C)c2)cn2nccc12 [Example 170, 1-((1S,5R,6S)-7,7-dimethyl-6-((6-(1-methyl-1H-pyrazol-4-yl)pyrazolo[1,5-a]pyrazin-4-yl)oxy)-2-azabicyclo[3.2.0]heptan-2-yl)prop-2-en-1-one]	10 to 1000 nM	1000 to 10000 nM		
C=CC(=O)N1CC[C@H]2[C@@H](Oc3nc(-c4cnn(C)c4)cn4nccc34)C(C)(C)[C@H]21 [Example 171, 1-((1S,5R,6R)-7,7-dimethyl-6-((6-(1-methyl-1H-pyrazol-4-yl)pyrazolo[1,5-a]pyrazin-4-yl)oxy)-2-azabicyclo[3.2.0]heptan-2-yl)prop-2-en-1-one]	10 to 1000 nM	1000 to 10000 nM		
